Values of other authors as cited in patent US6576617B2, “Direct action anti-mycotic” (International Fiber Corporation, priority 1999, dated 2003).

Tests used:
[1] = system: mold, yeast, and fungal growth; conditions: agar medium
[2] = system: mold, yeast, or fungus growth; conditions: non-liquid foods for human consumption; conventional natamycin

## C[C@@H]1C/C=C/C=C/C=C/C=C/[C@H](O[C@@H]2O[C@H](C)[C@@H](O)[C@H](N)[C@@H]2O)C[C@@H]2O[C@](O)(C[C@@H](O)C[C@H]3O[C@@H]3/C=C/C(=O)O1)C[C@H](O)[C@H]2C(=O)O [natamycin]
[1]
  concentration with anti-mycotic activity: ≥ 1 ppm
[2]
  concentration necessary for effective mold, yeast, and fungus control: greater than 5 ppm
